Reference: US12410220B2, “Modulation of mammalian cell lineage by synthetic immodulins” (priority 2021, dated 2025)
Marks after values point to notes of the source that are not given here. Peptide text beside a SMILES is read from it.

Assays:
[1] = Experiment 4D binding to FITC-labelled hyaluronic acid; conditions: biotinylated peptide 1 ug/well; 1 ug FITC-labelled hyaluronic acid, 90 minutes
Experimental: (§1) Streptavidin-coated 96-well plates (G-Biosciences, St. Louis, MO) were pre-treated with biotinylated peptides [see Example 1 for key] at 1 ug/well, at room temperature for 60 minutes. The plate was washed with PBS buffer and then 1 ug FITC-labelled heparin or hyaluronic acid in 100 uL PBS buffer was added per well (all tests in quadruplicate). Incubation proceeded for 90 minutes at room temperature, followed by two PBS washes. The plate was read in a standard laboratory fluorometer (488/525 nm exitation/[…]) and the counts normalized for immX3 peptide binding=100. Values statistically above background are shown in bold font. **p<0.05 versus immX3AVD.

[2] = Ferric iron-binding assay of biotinylated immodulin peptides; conditions: N-terminally biotinylated peptide, 400 ng per well, 60 min room temperature; immX3AVD = 100
Excerpt: N-terminally biotinylated versions of the peptides listed below were used in ferric iron-binding assays involving either an Alexa488-labeled streptavidin protocol (Binding Assay 1) or FITC-NTA assay (Binding Assay 2). Fluorescence was standardized to binding with immX3AVD control peptide (100) and the average of multiple experiments using both protocols is shown. P values are shown relative to the control immX3AVD peptide (**<0.05). D-amino acid residues are underlined in the sequences and the extension tripeptide of immX peptides is shown in bold font. Binding Assay 1 was done as follows: NTA coated 96-well plates (G-Biosciences, St. Louis, MO) were charged with ferric chloride and contacted with equimolar biotinylated peptide: streptavidin-A488 complex (400 ng peptide per well) for 60 min at room temperature, washed with phosphate-buffered saline (PBS) and read at 525 nm in a fluorescence counter. Binding Assay 2 was done as follows: Streptavidin coated 96-well plates (G-Biosciences, St. Louis, MO) were contacted with 400 ng peptide per well in PBS buffer for 60 minutes at room temperature, washed in PBS, then contacted with FITC-NTA (TRC, Toronto, Canada) complexed with equimolar ferric chloride (10× molar equivalent per well) for 60 min at room temperature, washed with PBS and read at 525 nm in a fluorescence counter.

[3] = test system: HFF-1 human fibroblast cell line; assay: Collagen-1 ELISA in HFF-1 dermal fibroblasts; assay type: cell-based; conditions: peptide 2 uM, 72 hour incubation
Experimental: Immodulin peptides have potential untility in the field of cosmetics. HFF-1 human fibroblast cell line was obtained from the American Type Culture Collection (ATCC). Cells were grown in a T-75 flask in DMEM Medium containing 10% fetal bovine serum and penicillin-streptomycin at 37° C. in a humidified, 5% CO2 incubator. Cells (100 µl, 2,000 cells/well) were plated in a 96-well plate and incubated overnight at 37° C. in a humidified, 5% CO2 incubator. Next day, 10 µl/well of compounds were added (quadruplicate wells). After 72 hour incubation with the compound, supernatants were collected for Collagen-1 ELISA assay and cell viability was measured in a luminometer after the addition of 100 IL/well CellTiterGlo reagent (Promega Inc, Madison, WI) as recommended by the manufacturer. Collagen stimulating activity of immodulin peptides in HFF-1 dermal fibroblasts: Peptides were added to cells at 2 uM. COL1 immunoreactivity was measured in the supernatants of cultured cells by ELISA using a rabbit monoclonal anti-COL1 primary antibody (Abcam, Cambridge, MA). Control (buffer) value of immunoreactivity was set to 100.

[4] = molecular target: T1, AA111-228 DNA-binding domain of RXR-alpha (RXRa-DBD) (Homo sapiens, UniProt P19793); assay: Experiment 4A binding to RXRa-DBD; conditions: 1 ug/well RXRa-DBD; 800 ng/well SA488-labelled peptide, 60 min; background subtracted
T1 construct: purchased Abcam, Cambridge, MA
T1 sequence (P19793 111-228): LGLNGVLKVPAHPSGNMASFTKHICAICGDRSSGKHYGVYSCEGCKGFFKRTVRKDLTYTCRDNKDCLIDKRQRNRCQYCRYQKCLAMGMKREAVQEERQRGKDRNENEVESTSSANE
Experimental: Experiment 4A. Binding of immodulin peptides to AA111-228 DNA-binding domain of RXR-alpha (RXRa-DBD). 1 ug/well recombinant RXRa-DBD (Abcam, Cambridge, MA) was adsorbed to wells of a 96-well plate for 60 minutes at room temperature, then blocked with 200 uL 1% bovine serum albumin (BSA) in PBS buffer overnight. Plate was washed and 800 ng/well Streptavidin-Alexa 488 conjugate (SA488)-labelled immX peptide was added. The plate was incubated for 60 min at room temperature, washed and counted in a standard fluorometer (excitation/emission 485/525 nm). Background (buffer alone) was subtracted.

[5] = Experiment 4D binding to FITC-labelled heparin; conditions: biotinylated peptide 1 ug/well; 1 ug FITC-labelled heparin, 90 minutes
Experimental: as §1

THP1-Dual monocytes = assay: THP1-Dual differentiation assay, immX3 peptide plus helper or inhibitor molecule; assay type: cell-based, human; conditions: immX3 peptide (330 nM) in all samples plus helper at the concentration given; immX3 with buffer = 100.0
Experimental: Mammalian cell differentiation assays using THP1-Dual monocytes reporter cell line (Invivogen Inc, San Diego, CA) seeded at 2×10e5 cells per well in 96-well plates and cultured at 37 degrees C. in RPMI-1640 growth medium plus 10% fetal bovine serum and 1% penicillin/streptomycin, then treated for 24 hours with either 100 ng/ml Phorbol 12-myristate 13-acetate (PMA protocol; Cayman Chemical Company, Ann Arbor, MI) or a mixture of IL-4 (100 ng/ml), GM-CSF (100 ng/ml), TNF-alpha (20 ng/ml) and ionomycin (200 ng/ml) (Cytokine protocol; Peprotech, Rocky Hill, NJ). Peptide (330 nM) was then added, and incubation continued for an additional 24 hours. Culture supernatants were then assayed for CCL22. Plates with adherent cells were washed with PBS and assayed for immunoreactivity of surface markers such as CD169, Clec9a, Clec12a or MHCII using fuorescent tag- or biotin-labeled anti-human antibodies purchased from Miltenyi Biotec (Auburn, CA) and a relevant secondary detection reagent, or by fluorescence counts.
The THP1-Dual cell differentiation assay was carried out as described above in Example 2, using immX3 peptide (330 nM) in all samples plus the indicated helper or inhibitor molecule. AU=arbitrary ELISA units. **p<0.01.

## CSCC[C@H](NC(=O)[C@H](CCCCN)NC(=O)[C@H](CS)NC(=O)[C@H](CCC(N)=O)NC(=O)[C@H](CCCCN)NC(=O)[C@H](CC(C)C)NC(=O)[C@H](CC(N)=O)NC(=O)[C@H](Cc1ccc(O)cc1)NC(=O)[C@H](CC(C)C)NC(=O)CNC(=O)[C@H](Cc1c[nH]cn1)NC(=O)[C@@H](N)CCCCN)C(=O)N[C@@H](CO)C(=O)N[C@@H](CC(C)C)C(=O)N[C@@H](CC(N)=O)C(=O)NCC(=O)N[C@@H](CCC(N)=O)C(=O)N[C@@H](CCCNC(=N)N)C(=O)NCC(=O)N[C@@H](CCC(=O)O)C(=O)N[C@@H](CS)C(=O)N[C@@H](Cc1c[nH]c2ccccc12)C(=O)O [imm2]
[1]
  Hyaluronate binding, counts normalized for immX3 peptide binding=100: 3.1 ± 9.8
[2]
  Ferric iron binding, fluorescence standardized to immX3AVD control peptide (100), Avg ± SD: 1.6 ± 0.8**
[3]
  COL1 immunoreactivity in supernatants, control (buffer) set to 100: 109
[4]
  Fluorescence, binding to RXRa-DBD: 2±38
[5]
  Heparin binding, counts normalized for immX3 peptide binding=100: 27.4 ± 22.9

## Hyaluronic acid [reference compound]
THP1-Dual monocytes
  CD169 (AU): 110.5 ± 10.2 AU

## CSCC[C@H](NC(=O)[C@H](CO)NC(=O)[C@@H](NC(=O)[C@H](CCC(=O)O)NC(=O)[C@H](CS)NC(=O)[C@H](CCC(N)=O)NC(=O)[C@H](CCCNC(=N)N)NC(=O)[C@H](CO)NC(=O)[C@H](Cc1c[nH]cn1)NC(=O)[C@H](Cc1ccc(O)cc1)NC(=O)[C@H](Cc1ccccc1)NC(=O)CNC(=O)[C@H](CC(N)=O)NC(=O)[C@@H](N)CCCCN)[C@@H](C)O)C(=O)N[C@@H](CC(=O)O)C(=O)NCC(=O)N[C@@H](CCC(=O)O)C(=O)N[C@@H](C)C(=O)NCC(=O)N[C@@H](CC(C)C)C(=O)N[C@@H](CS)C(=O)N[C@@H](Cc1c[nH]c2ccccc12)C(=O)O [imm1] (H-KNGFYHSRQCETSMDGEAGLCW-OH; N-terminus and C-terminus assumed)
[2]
  Ferric iron binding, fluorescence standardized to immX3AVD control peptide (100), Avg ± SD: 2.5 ± 1.6**
[3]
  COL1 immunoreactivity in supernatants, control (buffer) set to 100: 98
[4]
  Fluorescence, binding to RXRa-DBD: 670±85

## Transferrin: Fe-binding protein
THP1-Dual monocytes
  CD169 (AU): 126.8 ± 9.3** AU

## Leptin: Growth factor class
THP1-Dual monocytes
  CD169 (AU): 103.3 ± 11.6 AU

## GM-CSF: granulocyte-macrophage colony-stimulating factor; growth factor class
THP1-Dual monocytes
  CD169 (AU): 147.0 ± 15.3** AU

B1: CSF1: colony stimulating factor 1; growth factor class (protein, UniProt P09603 33-554, looked up)
Macrophage colony-stimulating …: EEVSEYCSHMIGSGHLQSLQRLIDSQMETSCQITFEFVDQEQLKDPVCYLKKAFLLVQDIMEDTMRFRDNTPNAIAIVQLQELSLRLKSCFTKDYEEHDKACVRTFYETPLQLLEKVKNVFNETKNLLDKDWNIFSKNCNNSFAECSSQDVVTKPDCNCLYPKAIPSSDPASVSPHQPLAPSMAPVAGLTWEDSEGTEGSSLLPGEQPLHTVDPGSAKQRPPRSTCQSFEPPETPVVKDSTIGGSPQPRPSVGAFNPGMEDILDSAMGTNWVPEEASGEASEIPVPQGTELSPSRPGGGSMQTEPARPSNFLSASSPLPASAKGQQPADVTGTALPRVGPVRPTGQDWNHTPQKTDHPSALLRDPPEPGSPRISSLRPQGLSNPSTLSAQPQLSRSHSSGSVLPLGELEGRRSTRDRRSPAEPEGGPASEGAARPLPRFNSVPLTDTGHERQSEGSFSPQLQESVFHLLVPSVILVLLAVGGLLFYRWRRRSHQEPQRADSPLEQPEGSPLTQDDRQVELPV
THP1-Dual monocytes
  CD169 (AU): 108.0 ± 32.3 AU
